As a reminder, the GI50 is the concentration giving 50% growth inhibition.

This is an account of results in ChEMBL document CHEMBL1201862, “PubChem BioAssay data set” (2004).

Assay in all cases: DTP human tumour cell line panel, 48 h
Assay [1] concerns NCI-H460.
The subject of assay [2] is A498.
Assay [3] relates to SW-620.
For assay [4], the system named is OVCAR-8.
Assay [5] has as its system MDA-MB-231.
Assay [6] concerns NCI-H23.
Assay [7] relates to HCC 2998.
In assay [8] the test system is SK-MEL-28.
The test system of assay [9] is UACC-257.
Assay [10] deals with COLO 205.
Assay [11] deals with MOLT-4.
Assay [12] relates to Malme-3M.
Assay [13] relates to MDA-MB-435.
The subject of assay [14] is NCI/ADR-RES.
Assay [15] deals with RXF 393.
The test system of assay [16] is SNB-75.
The test system of assay [17] is SF-539.
Assay [18] relates to SNB-19.
In assay [19] the test system is UACC-62.
In assay [20] the test system is HOP-92.

SMILES strings stand for the structures.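 In this assay, cells in 96-well plates receive the compound at five concentrations for 48 hours. Endpoints are linearly interpolated between the surrounding concentrations. GI50 = concentration required for 50% inhibition of growth.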 Calls of active or inactive are those of the source. Rule as the data show it: active = GI50 up to about 1.1 µM and inactive = higher.

In the case of `CCOC(=O)N1N=C(/C(C)=N/OC)C(C)[S+]1[O-]` (stereo not drawn), the GI50 in assay [1] was 57.7 µM (inactive); in [2] it was > 100 µM (inactive); in [3], > 100 µM (inactive); in [4] it was > 100 µM (inactive); in assay [5], > 100 µM (inactive); in [6], > 100 µM (inactive). Also, the GI50 in [7], in assay [8], in assay [9], in [10], in [11] and in assay [12] was > 100 µM (inactive) each time. Further, the GI50 was > 100 µM (inactive) in [13]; > 100 µM (inactive) in [14]; > 100 µM (inactive) in assay [15]; 85.3 µM (inactive) in assay [16]; > 100 µM (inactive) in assay [17]; > 100 µM (inactive) in assay [18]. Also, the GI50 in assay [19] and in assay [20] was > 100 µM (inactive) in each case.

For `c1ccc(CN2CCN3CCN(CC2)CCN(Cc2ccccc2)CC3)cc1`, the GI50 in assay [1] is 6.15 µM (inactive); in assay [2], 11.7 µM (inactive); in assay [3] it was 13.7 µM (inactive); in assay [4], 9.73 µM (inactive); in assay [5], 5.43 µM (inactive); in [6], 5.05 µM (inactive). Moreover, the GI50 in [7] was 10.9 µM (inactive); in assay [8], 4.67 µM (inactive); in assay [9], 3.04 µM (inactive); in assay [10] it was 1.93 µM (inactive); in assay [11], 8.75 µM (inactive); in assay [12], 2.83 µM (inactive). The GI50 in assay [13] was 3.15 µM (inactive); in assay [14], > 100 µM (inactive); in assay [15], 5.6 µM (inactive); in assay [16] it was 4.05 µM (inactive); in assay [17], 8.26 µM (inactive); in assay [18], 5.43 µM (inactive). Moreover, the GI50 in assay [19] was 4.24 µM (inactive); in assay [20], 7.06 µM (inactive).

Turning to `CN(C)CCOC1(CC2CCCCC2)CCC(C(C)(C)C)CC1` (stereo not drawn), the GI50 in assay [1] is 3.67 µM (inactive); in [2] it was 6.47 µM (inactive); in assay [3], 4.12 µM (inactive); in assay [4], 6.82 µM (inactive); in [5], 4.18 µM (inactive); in [6], 8.43 µM (inactive). For the same molecule, the GI50 in assay [7] was 4.38 µM (inactive); in assay [8], 4.68 µM (inactive); in assay [9], 4.61 µM (inactive); in [10] it was 2.87 µM (inactive); in assay [11], 2.49 µM (inactive); in assay [12], 2.83 µM (inactive). Moreover, the GI50 in [13] was 4.74 µM (inactive); in assay [14], 9.62 µM (inactive); in [15], 3.72 µM (inactive); in assay [16] it was 6.81 µM (inactive); in assay [17] it was 4.61 µM (inactive); in assay [18] it was 8.43 µM (inactive). The GI50 in assay [19] was 7.8 µM (inactive); in assay [20], 5.73 µM (inactive).

Regarding `O=[N+]([O-])C(=C(N1CCCCC1)N1CCCCC1)/C(Cl)=C(\Cl)[N+](=O)[O-]`, the GI50 was 22.5 µM (inactive) in [1]; 17.9 µM (inactive) in [2]; 3.36 µM (inactive) in [3]; 10.9 µM (inactive) in [4]; 7.59 µM (inactive) in assay [5]; 5.6 µM (inactive) in [6]. Moreover, the GI50 was 22.1 µM (inactive) in [7]; 16.8 µM (inactive) in assay [8]; 7.71 µM (inactive) in assay [9]; 5.01 µM (inactive) in [10]; 1.14 µM (inactive) in assay [11]; 2.37 µM (inactive) in [12]. Also, the GI50 was 5.01 µM (inactive) in [13]; 22.7 µM (inactive) in [14]; 1.31 µM (inactive) in [15]; 17.5 µM (inactive) in [16]; 9.1 µM (inactive) in assay [17]; 19.9 µM (inactive) in assay [18]. The GI50 in [19] is 15 µM (inactive); in [20] it was 2.74 µM (inactive).

Regarding `O=C1/C(=C/c2cccc3ccccc23)CCc2ccc([N+](=O)[O-])cc21`, the GI50 in assay [1] is 29 µM (inactive); in assay [2] it was 19.3 µM (inactive); in assay [3], 9.66 µM (inactive); in [4] it was 37.3 µM (inactive); in [5] it was 28.5 µM (inactive); in assay [6], 67.5 µM (inactive). In addition, the GI50 is 83.8 µM (inactive) in [7]; 16.6 µM (inactive) in assay [8]; 34 µM (inactive) in assay [10]; > 100 µM (inactive) in assay [11]; 17.3 µM (inactive) in assay [12]; 6.71 µM (inactive) in assay [13]. Moreover, the GI50 in assay [14] was 16.3 µM (inactive); in [15], 23.4 µM (inactive); in assay [16], 19.2 µM (inactive); in [17], 21.5 µM (inactive); in [18] it was 12.7 µM (inactive); in assay [19], 13.3 µM (inactive). Moreover, the GI50 in assay [20] is 23 µM (inactive).

As for `Cc1ccc(S(=O)(=O)NC(=O)Nc2cccc(S(N)(=O)=O)c2)cc1`, the GI50 in [1], in [2], in assay [3], in assay [5], in assay [6] and in [7] was > 100 µM (inactive) in each case. For the same molecule, the GI50 in [8], in assay [10], in assay [11], in [12], in assay [13] and in assay [14] was > 100 µM (inactive) throughout. The GI50 in assay [15], in assay [16], in [17], in assay [18], in assay [19] and in assay [20] was > 100 µM (inactive) in each case.

For the molecule `COc1cc(C2c3cc4c(cc3[C@@H](Nc3ccc(N)cc3)C3COC(=O)[C@H]23)OCO4)cc(OC)c1O` (stereo partly drawn), the GI50 is 0.0557 µM (active) in [1]; 1.18 µM (inactive) in [2]; 2.14 µM (inactive) in [3]; 2.22 µM (inactive) in assay [4]; 12.3 µM (inactive) in assay [5]; 0.828 µM (active) in assay [6]. Moreover, the GI50 in assay [7] was 3.27 µM (inactive); in assay [8], 6.76 µM (inactive); in assay [9], 7.19 µM (inactive); in assay [10], 7.85 µM (inactive); in assay [12] it was 2.13 µM (inactive); in [13], 10.8 µM (inactive). Besides, the GI50 in [14] is 3.75 µM (inactive); in assay [15], 3.91 µM (inactive); in [16] it was 1.94 µM (inactive); in assay [17], 1.07 µM (active); in [18], 0.805 µM (active); in [19] it was 1.15 µM (inactive). Moreover, the GI50 in [20] is 0.948 µM (active).

In the case of `CCc1ccc(CCC(=O)O)nc1`, the GI50 in assay [1], in assay [2], in assay [3], in [4], in assay [5] and in [6] was > 100 µM (inactive) each time. Also, the GI50 in assay [7], in assay [8], in assay [9], in assay [10], in [12] and in assay [13] was > 100 µM (inactive) in each case. Also, the GI50 in assay [14], in assay [15], in assay [16], in assay [17], in [18] and in assay [19] was > 100 µM (inactive) throughout. For the same molecule, the GI50 in assay [20] was > 100 µM (inactive).

Consider `C[n+]1c(-c2ccc(/C=N\Nc3ccnc(N/N=C/c4ccc(-c5cn6ccsc6[n+]5C)cc4)n3)cc2)cn2ccsc21`, for which the GI50 in assay [1] was 23 µM (inactive); in [2], 17.1 µM (inactive); in assay [3] it was 32.7 µM (inactive); in assay [4], 27.4 µM (inactive); in assay [5], 15.2 µM (inactive); in assay [6], 11.5 µM (inactive). Besides, the GI50 in assay [7] is 37.2 µM (inactive); in assay [9] it was 17.7 µM (inactive); in assay [10] it was 27.6 µM (inactive); in assay [11], 24.2 µM (inactive); in assay [12] it was 29.7 µM (inactive); in assay [13], 2.24 µM (inactive). Besides, the GI50 in assay [14] was 51.2 µM (inactive); in [15] it was 18.3 µM (inactive); in assay [16], 34 µM (inactive); in assay [17], 11.6 µM (inactive); in assay [18] it was 37.6 µM (inactive); in assay [19], 24.4 µM (inactive). Further, the GI50 in assay [20] is 18.3 µM (inactive).

As for `O=C(O)/C(=C/c1ccccc1)c1ccccc1`, the GI50 in [1], in assay [2], in assay [3], in assay [4], in assay [5] and in [6] was > 100 µM (inactive) in each case. Moreover, the GI50 in assay [7], in [8], in assay [9], in [11], in assay [12] and in [13] was > 100 µM (inactive) in each case. The GI50 in assay [14], in assay [15], in assay [16], in [17], in assay [18] and in assay [19] was > 100 µM (inactive) throughout. In addition, in [20], the GI50 was 46.6 µM (inactive).
